Laboratory results published in patent publication US20240366587A1, “USES OF A SOMATOSTATIN MODULATOR FOR THE TREATMENT OF DISEASE” (Crinetics Pharmaceuticals, Inc., priority 2021, published 2024).
Where “and” joins values, the source holds several entries; their conditions need not be identical. Identical values can stand only once.

Legend:
[1] = tested on: IGF-1; assay: Phase 2 clinical trials of acromegaly patients previously treated with LA-SRLs: steady state IGF-1 change by dose; type: in vivo, human; conditions: baseline = IGF-1 at last LA-SRL injection
Text: The switch to Compound A-monohydrochloride occurred 4 weeks after last LA-SRL injection.

[2] = Phase 1 single-and-multiple-dose study in healthy volunteers: oral glucose tolerance test / safety; type: in vivo, human; conditions: for change in fasting plasma glucose: multiple dosing up to 30 mg; for treatment emergent adverse events of hyperglycemia: repeated daily dosing 5-30 mg, OGTT after 10 days of dosing; for glucose concentration by 2 hours post challenge / peak glucose concentration 1 hour post oral glucose challenge: one subject
Experimental: A phase 1, randomized, double-blind, placebo-controlled, single and multiple ascending dose study was performed with oral Compound A at a single study center. Inclusion criteria included age 18 to 50 years; body mass index of 18-30 kg/m^2; and if female, postmenopausal by history or surgery. Exclusion criteria included presence of significant medical history.
In the single-dose phase, participants were randomized 6:2 to Compound A (1.25, 2.5, 5, 10, 20, 40, and 60 mg) or placebo in 7 cohorts (S1 to S7). Cohorts comparing oral bioavailability of solution versus capsules and the effect of a standardized high-fat, high-calorie breakfast on oral bioavailability of the capsule formulation employed the 10 mg dose level. In the multiple-dose phase, participants were randomized 6:3 to once-daily oral Compound A-HCl capsules or placebo at doses of 5 mg for 7 days (M1, Day Last=Day 7), and 10, 20, and 30 mg daily for 10 days (M2, M3, M4, Day Last=Day 10).
Safety assessments: Safety assessments included monitoring of clinical laboratory tests, cardiovascular safety monitoring (continuous Holter monitoring, ECG, telemetry), and physical examinations conducted at scheduled times throughout the study in the research units as well as post-discharge (up to 9 days after the single-dose, or up to 11 days after the last dose for multiple-dose cohorts). Adverse events and concomitant medications were recorded. Laboratory samples for clinical chemistry, hematology, coagulation tests, and urinalysis were collected under fasted conditions.
In the multiple-dose cohorts, baseline serum TSH, ACTH, and prolactin samples were collected on Day −2, and an oral glucose tolerance test (OGTT) was conducted on Day −7 or earlier. These assessments were repeated on Day 8 (M1) or Day 11 (M2 and subsequent cohorts).
Clinically significant hypoglycemia occurred in 1 subject in Cohort M3 (Compound A-HCl−10 days at 20 mg/day) at 2 and at 3 hours post-glucose challenge, and in 1 subject in Cohort M4 (Compound A-HCl−10 days at 30 mg/day) at 3 hours post-glucose challenge at the baseline assessment (Day −7).

[3] = tested on: insulin-like growth factor-1 (IGF-1); assay: ACROBAT Edge Phase 2 study in acromegaly: IGF-1 levels; type: in vivo, human
Experimental: (§1) An open label exploratory study designed to evaluate the safety, efficacy, and pharmacokinetics of Compound A (also known as paltusotine) in subjects with acromegaly that are treated with somatostatin analogue (SSA) based treatment regimens.
(§2) 5 mg or 10 mg HMG capsule formulation. Multiple capsules were swallowed with water depending on dose specified for a given period/cohort. Enrolled patients began treatment with oral paltusotine 10 mg/day. The dose was up-titrated in a double-blind manner in 10-mg increments to a maximum 40 mg/day at weeks 4, 7 and 10 according to IGF-1 levels measured at weeks 2, 5, and 8, respectively. Up-titrations were performed if the investigator confirmed that the patient was tolerating the current dose and the unblinded central IGF-1 reader determined that IGF-1 was >0.9×ULN at week 2 and 5 or >1.0×ULN at week 8.
Primary Outcome Measures: Change from baseline (mean of Screening values) in insulin-like growth factor-1 (IGF-1) level [Time Frame: 13 Weeks].
The primary hypothesis was that the group would show no change in the median IGF-1 at Week 13 versus baseline.

[4] = Phase 1 multi-cohort single dose study: relative bioavailability and PK of SDD tablets vs HMG capsules; type: in vivo, human
Experimental: The study was conducted in up to 3 cohorts, each with a specific primary objective: • Cohort 1: To characterize performance of 10 mg tablets prepared by spray-dried dispersion (SDD) of Compound A-HCl salt. • Cohort 2: To evaluate the relative bioavailability of 10 mg SDD tablets compared to the Compound A-HCl hot melt granulation (HMG) formulation, 10 mg capsules. To determine the effect of timing of food administration on pharmacokinetics of low dose of the 10 mg SDD tablets. • Cohort 3: To determine the effect of timing of food administration on pharmacokinetics of SDD tablets and dose proportionality in doses higher than 20 mg. To determine the optimal dosing regimen that results in adequate systemic exposure with short post-dose fasting duration. • Cohort 4: To determine the effect of timing of food administration on pharmacokinetics of SDD tablets in doses higher than 20 mg. To determine the optimal dosing regimen of paltusotine that results in high systemic exposure with low post-dose fasting duration • Cohort 5: To determine the effect of the proton-pump inhibitor (PPI), lansoprazole, on the pharmacokinetics of a 60 mg dose of SDD tablets. To determine the effect of a low-fat meal on the pharmacokinetics of a 60 mg dose of SDD tablets.
The SDD tablets were evaluated. Up to twelve (12) healthy male and female subjects were enrolled in each cohort. Cohort 1 consisted of 4 periods: In Period 1, subjects were administered a proton-pump inhibitor (lansoprazole, 15 mg BID for 3 days (from Day −3), taken orally at least 30 min prior to a meal, once in the morning and once in the evening). On the fourth day (Day 1 of study), fasted subjects will take the last dose of lansoprazole (15 mg) 60 min prior to 20 mg Compound A (2×10 mg of the SDD tablets). In Period 2, fasted subjects were administered 20 mg Compound A (2×10 mg of the SDD tablets). In Period 3, fasted subjects were administered 20 mg Compound A (2×10 mg of the SDD tablets) with a high-fat, high-calorie meal. In Period 4, fasted subjects will take up to 80 mg Compound A (up to 8×10 mg of the SDD tablets). […]

[5] = Clinical studies: bioavailability and half-life of Compound A; type: in vivo; conditions: human, plasma, oral
Text: Compound A is a selective nonpeptide SST2 biased agonist. […] In some embodiments, Compound A is used to treat acromegaly, neuroendocrine tumors, or both. In some embodiments, Compound A is used to treat acromegaly. In some embodiments, Compound A is used to treat neuroendocrine tumors. In some embodiments, Compound A is used to treat pituitary gigantism.

[6] = tested on: growth hormone (GH); assay: ACROBAT Edge Phase 2 study in acromegaly: GH levels; type: in vivo, human
Experimental: as §1, §2

[7] = tested on: IGF-1; assay: ACROBAT Advance long-term study: IGF-1; type: in vivo, human; conditions: once daily oral, 10-40 mg/day HMG capsules; interim results
Experimental: (§3) ACROBAT Advance is an ongoing open-label, long-term (5 year) safety and efficacy study of paltusotine in patients rolling-over from the ACROBAT Evolve & Edge studies.
(§4) Eligible patients completing ACROBAT Edge and Evolve entered ACROBAT Advance either immediately on completion of a washout period in the parent study or after a gap during which they reverted to their routine standard of care treatment. Paltusotine therapy: initiated at 10 mg/day and titrated up to maximum dose of 40 mg/day based on IGF-1 and tolerability. Patients were administered 10 mg HMG capsules. Combination therapy was allowed for patients not reaching therapeutic targets with 40 mg/day of paltusotine monotherapy.
IGF-1 measured centrally with IDS-ISYS assay calibrated to WHO recombinant reference standard 02/254.

[8] = tested on: subjects with acromegaly; assay: ACROBAT Edge: patient reported outcomes (Acromegaly Symptom Diary, PGI-I); type: in vivo, human
Experimental: Patients recorded daily acromegaly symptoms using a nine-item Acromegaly Symptom Diary (ASD). The ASD is a 9-item patient-reported measure of symptoms associated with acromegaly, including headache, joint pain, sweating, fatigue, leg weakness, swelling, numbness/tingling, sleep difficulties, and short-term memory difficulties. Symptoms experienced in the previous 24 hours are rated on an 11-point scale, from 0 (no symptom) to 10 (worst symptom). Patient Global Impression of Improvement (PGI-I) scale was completed at week 13 (end of treatment).

[9] = tested on: subjects with acromegaly; assay: ACROBAT Advance long-term study: safety and tolerability; type: in vivo, human; conditions: acromegaly patients; including in combination with cabergoline
Experimental: as §3, §4

[10] = Cohort M2 (10 mg/day, 10 days), monohydrochloride
[11] = Cohort M3 (20 mg/day, 10 days), monohydrochloride

In the case of Cl.N#Cc1cccc(-c2ccc3ncc(-c4cc(F)cc(F)c4)c(N4CCC(N)CC4)c3c2)c1O [Compound A-HCl, 3-[4-(4-amino-piperidin-1-yl)-3-(3,5-difluoro-phenyl)-quinolin-6-yl]-2-hydroxy-benzonitrile monohydrochloride], the “steady state IGF-1 change from baseline” value ([1]; 10 and 20 mg per day) is reported as “IGF-1 levels that were above baseline”, the “steady state IGF-1 change from baseline” value ([1]; 30/day and 40 mg/day) is reported as “changes from baseline of near zero” and the “Glucose AUC (0-3 hr) Difference (SE), oral glucose tolerance test” value (“Glucose AUC (0-3 hr) Difference (SE)” for short) ([2]; healthy volunteers, 7 days - 5 mg/day, Day −7 vs day after last dose) is reported as 3.8 (4.00) h*mmol/L. The “Glucose AUC (0-3 hr) Difference (SE)” value ([2]; healthy volunteers, 10 days - 10 mg/day) was 2.4 (3.19) h*mmol/L, the “Glucose AUC (0-3 hr) Difference (SE)” value ([2]; healthy volunteers, 10 days - 20 mg/day) was 5.1 (3.12) h*mmol/L and the “Glucose AUC (0-3 hr) Difference (SE)” value ([2]; healthy volunteers, 10 days - 30 mg/day, monohydrochloride) was 3.2 h*mmol/L and 3.2 (1.34) h*mmol/L. The “change in fasting plasma glucose” value ([2]; healthy volunteers) was “wasn't significantly changed”, the “treatment emergent adverse events of hyperglycemia” value ([2]; healthy volunteers) was “two treatment emergent adverse effects (TEAEs) of asymptomatic hyperglycemia occurred” and the “glucose concentration by 2 hours post challenge” value [2, 10] was 77 mg/dL and 4.3 mmol/L. The “peak glucose concentration 1 hour post oral glucose challenge” value [2, 10] was 12.4 mmol/L and 223 mg/dL, the “glucose concentration by 2 hours post challenge” value [2, 11] was 5.8 mmol/L and 104 mg/dL and the “peak glucose concentration 1 hour post oral glucose challenge” value [2, 11] was 12.2 mmol/L and 220 mg/dL.

In the case of N#Cc1cccc(-c2ccc3ncc(-c4cc(F)cc(F)c4)c(N4CCC(N)CC4)c3c2)c1O [Compound A, 3-(4-(4-amino-piperidin-1-yl)-3-(3,5-difluoro-phenyl)-quinolin-6-yl)-2-hydroxy-benzonitrile], the “change of IGF-1 levels from baseline after 13 weeks of treatment” value ([3]; acromegaly patients previously treated with injected SRL depots, 10-40 mg/day) is reported as “did not significantly change from baseline”, the “IGF-1 after withdrawal of treatment” value ([3]; acromegaly patients, washout) is reported as “Rise in IGF-1 after withdrawal (within 2 weeks)” and the “reduction of exposures (Cmax and AUC) when administered with PPI” value ([4]; Cohort 5, 60 mg SDD tablets) is reported as ~40%. For the same compound, the “reduction of exposures (Cmax and AUC) when administered with low-fat meal” value ([4]; Cohort 5, 60 mg SDD tablets) was ~60%, the “reduction of exposures when administered with high-fat meal” value ([4]; SDD tablets) was > 80% and the bioavailability ([5]; read-out: estimated bioavailability) was ~70%. The half-life ([5]; read-out: observed half-life) was 42 to 50 h, the “change of GH levels from baseline after 13 weeks of treatment” value ([6]; acromegaly patients previously treated with injected SRL depots) was “did not significantly change from baseline levels” and the “GH after withdrawal of treatment” value ([6]; acromegaly patients, washout) was “Rise in GH after withdrawal”. The “IGF-1 level on long-term treatment” value [7] was “lowers and maintains IGF-1 at levels comparable to prior injected SRL therapy for up to 51 weeks”, the “change in total ASD score from Baseline to week 13/EoT, median (IQR)” value ([8]; n=18, score range 0-70) was −0.43 (−5.0, 2.4) and the “patients "minimally improved" or "no change" on PGI-I” value ([8]; week 13/EoT) was 26 (55.3%) patients. The “patients reporting worsening on PGI-I” value ([8]; week 13/EoT) was “No patients reported any degree of worsening”, the “patients "very much improved" or "much improved" on PGI-I” value ([8]; week 13/EoT, compared to before the study, while treated with depot SRLs) was 11 (23.4%) patients and the “tolerability and safety profile” value [9] was “well tolerated with a safety profile similar to that of SRLs”. For the same compound, the “change in fasting plasma glucose” value ([2]; healthy volunteers) was “not associated with significant changes in fasting plasma glucose”, the “treatment emergent adverse events of hyperglycemia” value ([2]; healthy volunteers) was “Two TEAEs of asymptomatic hyperglycemia occurred” and the “increase from baseline in serum glucose AUC0-3 hr” value ([2]; healthy volunteers, up to 30 mg, placebo 18%) was “up to 36%”. For the same compound, the “glucose concentration by 2 hours post challenge” value ([2]; Cohort M2 (10 mg/day, 10 days)) was 4.3 mmol/L and 77 mg/dL, the “peak glucose concentration 1 hour post oral glucose challenge” value ([2]; Cohort M2 (10 mg/day, 10 days)) was 12.4 mmol/L and 223 mg/dL and the “glucose concentration by 2 hours post challenge” value ([2]; Cohort M3 (20 mg/day, 10 days)) was 5.8 mmol/L and 104 mg/dL. For the same compound, the “peak glucose concentration 1 hour post oral glucose challenge” value ([2]; Cohort M3 (20 mg/day, 10 days)) was 12.2 mmol/L and 220 mg/dL.
